Columns and labels:
[1] = Human pharmacokinetics of circulating 9-cis-retinol in blood from completed clinical trials after oral 9-cis-retinyl acetate; format: in vivo
Experimental: FIG. 2 plots human pharmacokinetic (PK) data for the circulating levels of 9-cis-retinol in the blood from completed clinical trials where 9-cis-retinyl acetate was administered orally.
9-cis-retinyl acetate is the acetate ester of 9-cis-retinol. Acetate esters like 9-cis-retinyl acetate are generally short-lived because they are readily hydrolyzed either at physiological pH or by esterases in the blood and other parts of the body.
Thus, further discussion focuses on 9-cis-retinol.
Collated in FIG. 2 are human PK data that show a Cmax between 4 and 7 hours for 9-cis-retinol independent of initial dose administered. A low steady level of 9-cis-retinol is achieved in ˜24 hours. […] The circulating 9-cis-retinol is observed at similar levels from about 24 hours through at least 700 hours after a single dose.
(§1) Clearance from the blood is rapid above ˜8 nM, but quickly drops to zero or near zero below that level. Steady state levels (from ˜24 hrs post dose) are 4.57 nM (10 mg/m^2 dose, 83 samples), 8.32 nM (40 mg/m^2 dose, 149 samples), and 7.46 nM (5 to 60 mg/m^2, 629 samples).

[2] = Population PK model (2 compartment, concentration-dependent clearance) for 9-cis-retinol built on the observed clinical data; conditions: human blood, FIG. 4
Source text: FIG. 3 schematically illustrates a 2 compartment PK model used to describe the observed clinical data.
From the observed PK data analyzed, a population PK model for levels of 9-cis-retinol was built. Based on the observed clinical data, a 2 compartment PK model was constructed (FIG. 3). This kinetic model for 9-cis-retinol includes a recirculation feature that maintains 9-cis-retinol levels for long periods of time. Two features of this model include apparent concentration-dependent clearance of 9-cis-retinol from the blood, and apparent zero or close to zero clearance at low concentrations. This accounts for long recirculating levels of 9-cis-retinol, seen in samples consistently at 100 hours, 300 hours and 700 hours post last dose administered.
as §1

Row | Steady state levels (from ~24 hrs post dose) ([1]; 10 mg/m^2 dose, 83 samples) [nM] | Steady state levels (from ~24 hrs post dose) ([1]; 40 mg/m^2 dose, 149 samples) [nM] | Steady state levels (from ~24 hrs post dose) ([1]; 5 to 60 mg/m^2, 629 samples) [nM] | Time through which circulating 9-cis-retinol is observed at similar levels ([1]; human, in vivo) | Cmax (time of) for 9-cis-retinol ([1]; human, in vivo, po) [h] | Time at which a low steady level of 9-cis-retinol is achieved ([1]; human, in vivo, po) | Concentration above which clearance from the blood is rapid (drops to zero or near zero below) [2] [nM] | Structure (SMILES) | Persistence of 9-cis-retinyl acetate in human blood samples following oral dosing ([1]; human, in vivo, po)
1 | 4.57 | 8.32 | 7.46 | at least 700 hours | 4 to 7 | about 24 hours | ~8 | CC1=C(/C=C/C(C)=C\C=C\C(C)=C\CO)C(C)(C)CCC1 [9-cis-retinol] | –
2 | – | – | – | – | – | – | – | CC(=O)OC/C=C(C)/C=C/C=C(C)\C=C\C1=C(C)CCCC1(C)C [9-cis-retinyl acetate, (2E,4E,6Z,8E)-3,7-dimethyl-9-(2,6,6-trimethylcyclohex-1-en-1-yl)nona-2,4,6,8-tetraen-1-yl acetate] | extremely short lived and rapidly hydrolyzed to 9-cis-retinol

From patent publication US20230321024A1, “METHODS OF TREATING VISUAL DISORDERS USING DAILY LOW DOSING OF A RETINOID COMPOUND” (ELUMINEX BIOSCIENCES (SUZHOU) LIMITED, priority 2020, published 2023)
